From ChEMBL document CHEMBL1128455, “Ribose-modified adenosine analogues as potential partial agonists for the adenosine receptor” (J Med Chem, 1995)

Tests used:
Adenosine receptor A1 [1] = target: T1, Adenosine receptor A1 (Rattus norvegicus, UniProt P25099)
T1 sequence (P25099 whole entry): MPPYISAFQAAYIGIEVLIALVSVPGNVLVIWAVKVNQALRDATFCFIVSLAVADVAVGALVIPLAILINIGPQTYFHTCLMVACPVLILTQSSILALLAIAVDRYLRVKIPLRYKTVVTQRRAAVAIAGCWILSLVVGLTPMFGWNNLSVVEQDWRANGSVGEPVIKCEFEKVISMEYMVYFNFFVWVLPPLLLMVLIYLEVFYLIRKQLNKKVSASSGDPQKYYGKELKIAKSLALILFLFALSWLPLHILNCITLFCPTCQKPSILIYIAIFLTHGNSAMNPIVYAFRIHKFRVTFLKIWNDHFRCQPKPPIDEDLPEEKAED
Description: Affinity for the Adenosine A1 receptor in the absence of GTP (A1-GTP) by using [3H]DPCPX as radioligand

Adenosine receptor A2a = Adenosine receptor A2a (Rattus norvegicus, UniProt P30543); assay: Binding affinity against Adenosine A2A receptor by using [3H]CGS-21680 as radioligand
Adenosine receptor A1 [2] = target: T1, Adenosine receptor A1; remark: listed apart in the source
Description: Affinity for the Adenosine A1 receptor in the presence of GTP (A1+GTP) by using [3H]-DPCPX as radioligand

Rattus norvegicus = species: Rattus norvegicus; assay: GTP shift was determined in rat; type: functional

Adenosine receptor A2a, sequence (P30543 whole entry): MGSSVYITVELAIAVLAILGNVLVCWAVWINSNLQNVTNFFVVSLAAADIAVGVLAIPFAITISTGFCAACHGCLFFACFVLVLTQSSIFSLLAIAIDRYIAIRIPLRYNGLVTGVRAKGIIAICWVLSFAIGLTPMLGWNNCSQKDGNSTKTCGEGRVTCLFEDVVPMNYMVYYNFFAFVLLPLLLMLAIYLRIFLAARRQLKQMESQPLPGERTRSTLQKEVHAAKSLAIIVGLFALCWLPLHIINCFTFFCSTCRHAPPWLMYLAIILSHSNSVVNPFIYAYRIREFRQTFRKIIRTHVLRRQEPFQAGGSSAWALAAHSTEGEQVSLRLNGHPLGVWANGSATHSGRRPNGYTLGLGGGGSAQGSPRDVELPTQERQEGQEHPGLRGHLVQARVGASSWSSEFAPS

Ki (Adenosine receptor A1 [1]) [µM]	Ki (Adenosine receptor A2a) [µM]	Ki (Adenosine receptor A1 [2]) [µM]	% radioligand bound (Adenosine receptor A2a) [%]	Structure (SMILES)	GTP shift (Rattus norvegicus)
8.26	57.2	17.5	–	C[C@@H](Cc1ccccc1)Nc1ncnc2c1ncn2[C@@H]1O[C@H](CO)C[C@H]1O	2.1
0.35	7.36	1.01	–	C[C@H](Cc1ccccc1)Nc1ncnc2c1ncn2[C@@H]1O[C@H](CO)C[C@H]1O	2.9
8.45	–	14.4	86	C[C@H](Cc1ccccc1)Nc1ncnc2c1ncn2C1CC(O)C(CO)O1 (stereo partly specified)	1.7
–	–	–	–	Nc1ncnc2c1ncn2[C@@H]1O[C@H](CO)C[C@H]1O [CORDYCEPIN]	2.1
8.94	–	22.8	90	OC[C@H]1O[C@@H](n2cnc3c(NC4CCCCC4)ncnc32)C[C@@H]1O	2.6
1.87	–	7.6	88	OC[C@H]1O[C@@H](n2cnc3c(NC4CCCC4)ncnc32)C[C@@H]1O	4.1
–	–	–	91	C[C@@H](Cc1ccccc1)Nc1ncnc2c1ncn2C1CC(O)C(CO)O1 (stereo partly specified)	–
1.82	–	12.1	–	C[C@H]1O[C@@H](n2cnc3c(N)ncnc32)[C@H](O)[C@@H]1O [5'-Deoxyadenosine]	6.6
0.3	3.67	1.07	–	C[C@H](Cc1ccccc1)Nc1ncnc2c1ncn2C1O[C@H](C)[C@@H](O)[C@H]1O (stereo partly specified)	3.6
12.5	8.6	14.7	–	Cn1cnc2c(N)ncnc21	1.2
0.11	18.6	0.47	–	OC[C@@H]1C[C@@H](O)[C@H](n2cnc3c(NC4CCCC4)ncnc32)O1	4.3
0.07	10.1	0.45	–	C[C@H]1OC(n2cnc3c(NC4CCCC4)ncnc32)[C@H](O)[C@@H]1O (stereo partly specified)	6.4
0.31	22.1	1.26	–	OC[C@@H]1C[C@@H](O)[C@H](n2cnc3c(NC4CCCCC4)ncnc32)O1	4.1
–	0.58	–	–	OC[C@H]1O[C@@H](n2cnc3c(NC4CCCC4)ncnc32)[C@H](O)[C@@H]1O [N6-CYCLOPENTYLADENOSINE]	–
